Data as given in article PMC11702208 (RSC Advances, 2025).

Legend:
UO-31 = test: NCI cytotoxicity screen; assay type: cell-based, human; details: 10.0 μM one dose
A549/ATCC = test: NCI cytotoxicity screen; assay type: cell-based, human; details: 10.0 μM one dose; A549/ATCC
SR = test: NCI cytotoxicity screen; assay type: cell-based, human; details: 10.0 μM one dose
UACC-62 = test: NCI cytotoxicity screen; assay type: cell-based, human; details: 10.0 μM one dose
LOX IMVI = test: NCI cytotoxicity screen; assay type: cell-based, human; details: 10.0 μM one dose
MDA-MB-435 = test: NCI cytotoxicity screen; assay type: cell-based, human; details: 10.0 μM one dose
COX-2 = biological target: T1, COX-2 (Ovis aries, UniProt P79208); test: Colorimetric COX; assay type: biochemical, ovine
T1 sequence (P79208 17-603): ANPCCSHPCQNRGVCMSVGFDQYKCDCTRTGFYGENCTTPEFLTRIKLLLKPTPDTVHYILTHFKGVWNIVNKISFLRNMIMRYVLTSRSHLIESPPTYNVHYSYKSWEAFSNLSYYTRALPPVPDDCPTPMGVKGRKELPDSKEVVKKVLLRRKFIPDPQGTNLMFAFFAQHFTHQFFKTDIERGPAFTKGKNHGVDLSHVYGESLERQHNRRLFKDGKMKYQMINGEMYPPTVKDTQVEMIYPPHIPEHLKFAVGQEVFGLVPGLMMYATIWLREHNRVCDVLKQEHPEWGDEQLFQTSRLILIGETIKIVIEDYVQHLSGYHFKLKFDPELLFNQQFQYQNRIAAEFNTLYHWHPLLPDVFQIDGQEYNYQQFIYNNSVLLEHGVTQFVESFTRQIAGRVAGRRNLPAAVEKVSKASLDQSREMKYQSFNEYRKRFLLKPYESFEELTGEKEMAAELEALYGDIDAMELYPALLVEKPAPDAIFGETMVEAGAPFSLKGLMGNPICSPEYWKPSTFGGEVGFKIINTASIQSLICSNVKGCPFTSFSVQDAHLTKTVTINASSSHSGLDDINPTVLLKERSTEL

MDA-MB-231/ATCC = test: NCI cytotoxicity screen; assay type: cell-based, human; details: 10.0 μM one dose; MDA-MB-231/ATCC
HT29 = test: NCI cytotoxicity screen; assay type: cell-based, human; details: 10.0 μM one dose; HT-29
K-562 = details: 10.0 μM one dose
SNB-19 = test: NCI cytotoxicity screen; assay type: cell-based, human; details: 10.0 μM one dose
MDA-MB-468 = test: NCI cytotoxicity screen; assay type: cell-based, human; details: 10.0 μM one dose
59 cancer cell lines = test: NCI cytotoxicity screen, full panel; assay type: cell-based, human; details: 10.0 μM one dose, 59 cell lines
CAKI-1 = test: NCI cytotoxicity screen; assay type: cell-based, human; details: 10.0 μM one dose
MCF7 = test: NCI cytotoxicity screen; assay type: cell-based, human; details: 10.0 μM one dose; MCF-7
SF-268 = test: NCI cytotoxicity screen; assay type: cell-based, human; details: 10.0 μM one dose
OVCAR-3 = test: NCI cytotoxicity screen; assay type: cell-based, human; details: 10.0 μM one dose; OVCAR-3
RXF 393 = test: NCI cytotoxicity screen; assay type: cell-based, human; details: 10.0 μM one dose
MOLT-4 = test: NCI cytotoxicity screen; assay type: cell-based, human; details: 10.0 μM one dose
SNB-75 = test: NCI cytotoxicity screen; assay type: cell-based, human; details: 10.0 μM one dose
CDK9 = CDK9 (Homo sapiens, UniProt P50750); test: biochemical; details: IC50 CDK9 inhibition
T-47D = test: NCI cytotoxicity screen; assay type: cell-based, human; details: 10.0 μM one dose; T-47D
NCI-H226 = test: NCI cytotoxicity screen; assay type: cell-based, human; details: 10.0 μM one dose
HER2 = HER2 (Homo sapiens, UniProt P04626); test: HER2 tyrosine kinase assay; assay type: biochemical; details: IC50 HER2 inhibition
PC-3 = test: NCI cytotoxicity screen; assay type: cell-based, human; details: 10.0 μM one dose
SK-MEL-5 = test: NCI cytotoxicity screen; assay type: cell-based, human; details: 10.0 μM one dose
EGFR = EGFR (Homo sapiens, UniProt P00533); test: biochemical; details: IC50 EGFR inhibition
EKVX = test: NCI cytotoxicity screen; assay type: cell-based, human; details: 10.0 μM one dose
HS 578T = test: NCI cytotoxicity screen; assay type: cell-based, human; details: 10.0 μM one dose; HS-578T
NCI-H522 = test: NCI cytotoxicity screen; assay type: cell-based, human; details: 10.0 μM one dose
HCT-15 = test: NCI cytotoxicity screen; assay type: cell-based, human; details: 10.0 μM one dose
KM12 = test: NCI cytotoxicity screen; assay type: cell-based, human; details: 10.0 μM one dose; KM-12
CCRF-CEM = test: NCI cytotoxicity screen; assay type: cell-based, human; details: 10.0 μM one dose
SF-539 = test: NCI cytotoxicity screen; assay type: cell-based, human; details: 10.0 μM one dose
NCI-H23 = test: NCI cytotoxicity screen; assay type: cell-based, human; details: 10.0 μM one dose
DU-145 = test: NCI cytotoxicity screen; assay type: cell-based, human; details: 10.0 μM one dose
[1] = test system: Ovarian cancer subpanel tumor cell lines; test: NCI cytotoxicity screen, subpanel; assay type: cell-based, human; details: 10 μM; range over ovarian cancer cell lines
HCT-116 = test: NCI cytotoxicity screen; assay type: cell-based, human; details: 10.0 μM one dose
U251 = test: NCI cytotoxicity screen; assay type: cell-based, human; details: 10.0 μM one dose; U-251
A498 = test: NCI cytotoxicity screen; assay type: cell-based, human; details: 10.0 μM one dose; A-498
SF-295 = test: NCI cytotoxicity screen; assay type: cell-based, human; details: 10.0 μM one dose
RPMI-8226 = test: NCI cytotoxicity screen; assay type: cell-based, human; details: 10.0 μM one dose

Chain of HER2 (P04626 23-1255): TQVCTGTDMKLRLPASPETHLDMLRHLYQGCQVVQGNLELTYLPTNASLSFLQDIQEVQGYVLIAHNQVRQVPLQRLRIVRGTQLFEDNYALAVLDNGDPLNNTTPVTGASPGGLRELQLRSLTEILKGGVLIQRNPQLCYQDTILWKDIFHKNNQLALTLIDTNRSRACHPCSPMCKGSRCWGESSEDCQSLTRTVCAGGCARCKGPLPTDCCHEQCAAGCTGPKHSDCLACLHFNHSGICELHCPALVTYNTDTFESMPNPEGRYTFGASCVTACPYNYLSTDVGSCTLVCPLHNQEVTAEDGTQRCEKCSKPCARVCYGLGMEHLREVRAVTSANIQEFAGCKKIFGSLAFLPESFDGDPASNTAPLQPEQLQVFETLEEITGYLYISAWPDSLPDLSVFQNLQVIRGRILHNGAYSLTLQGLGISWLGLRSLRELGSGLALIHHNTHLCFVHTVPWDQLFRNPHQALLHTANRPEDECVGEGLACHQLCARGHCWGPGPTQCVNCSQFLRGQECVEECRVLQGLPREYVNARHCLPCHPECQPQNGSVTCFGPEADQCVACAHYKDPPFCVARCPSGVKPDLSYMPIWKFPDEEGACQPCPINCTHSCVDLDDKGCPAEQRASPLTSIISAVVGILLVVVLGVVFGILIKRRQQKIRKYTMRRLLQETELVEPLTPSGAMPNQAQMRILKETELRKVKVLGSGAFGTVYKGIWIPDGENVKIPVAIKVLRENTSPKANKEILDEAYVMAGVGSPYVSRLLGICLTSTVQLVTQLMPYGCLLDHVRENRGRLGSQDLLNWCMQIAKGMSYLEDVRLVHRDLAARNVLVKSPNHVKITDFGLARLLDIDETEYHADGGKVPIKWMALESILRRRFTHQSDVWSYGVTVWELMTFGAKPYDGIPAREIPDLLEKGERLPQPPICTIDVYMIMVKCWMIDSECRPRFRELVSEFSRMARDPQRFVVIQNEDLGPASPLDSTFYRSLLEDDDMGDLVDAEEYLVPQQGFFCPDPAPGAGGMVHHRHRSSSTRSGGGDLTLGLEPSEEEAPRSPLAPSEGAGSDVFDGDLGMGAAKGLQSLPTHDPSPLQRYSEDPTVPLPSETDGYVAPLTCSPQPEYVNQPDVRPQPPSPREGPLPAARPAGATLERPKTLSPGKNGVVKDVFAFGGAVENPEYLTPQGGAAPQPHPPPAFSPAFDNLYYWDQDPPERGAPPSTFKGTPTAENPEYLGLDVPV
Chain of CDK9 (P50750 whole entry): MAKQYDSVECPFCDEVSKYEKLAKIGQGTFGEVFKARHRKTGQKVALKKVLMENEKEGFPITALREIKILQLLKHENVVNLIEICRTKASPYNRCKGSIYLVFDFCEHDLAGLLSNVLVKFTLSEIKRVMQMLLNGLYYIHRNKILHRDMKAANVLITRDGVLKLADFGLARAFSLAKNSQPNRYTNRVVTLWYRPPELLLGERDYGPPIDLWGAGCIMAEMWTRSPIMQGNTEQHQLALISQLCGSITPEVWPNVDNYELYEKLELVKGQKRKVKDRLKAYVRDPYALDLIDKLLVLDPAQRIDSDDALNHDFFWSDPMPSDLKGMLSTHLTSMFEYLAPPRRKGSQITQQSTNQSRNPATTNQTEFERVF
Chain of CDK9 (O60563 whole entry partner): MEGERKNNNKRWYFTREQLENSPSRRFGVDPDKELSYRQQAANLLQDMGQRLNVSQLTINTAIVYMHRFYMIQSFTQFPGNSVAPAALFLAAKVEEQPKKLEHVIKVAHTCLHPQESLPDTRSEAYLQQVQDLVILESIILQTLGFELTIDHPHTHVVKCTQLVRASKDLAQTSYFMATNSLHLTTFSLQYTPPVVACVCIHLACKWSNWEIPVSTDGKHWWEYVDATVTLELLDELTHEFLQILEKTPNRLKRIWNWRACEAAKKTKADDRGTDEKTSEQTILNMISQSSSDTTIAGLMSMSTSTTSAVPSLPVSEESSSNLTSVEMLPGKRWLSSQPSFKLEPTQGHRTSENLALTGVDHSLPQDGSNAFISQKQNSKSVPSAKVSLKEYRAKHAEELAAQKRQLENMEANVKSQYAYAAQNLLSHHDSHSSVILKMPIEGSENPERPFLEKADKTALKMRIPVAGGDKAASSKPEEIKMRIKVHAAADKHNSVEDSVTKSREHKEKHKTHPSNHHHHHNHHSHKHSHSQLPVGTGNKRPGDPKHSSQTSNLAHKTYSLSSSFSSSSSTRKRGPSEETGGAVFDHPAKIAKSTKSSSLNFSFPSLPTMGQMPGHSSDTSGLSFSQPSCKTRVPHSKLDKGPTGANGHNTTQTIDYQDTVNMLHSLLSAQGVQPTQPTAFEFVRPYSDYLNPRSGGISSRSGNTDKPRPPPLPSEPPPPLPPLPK
Chain of EGFR (P00533 25-1210): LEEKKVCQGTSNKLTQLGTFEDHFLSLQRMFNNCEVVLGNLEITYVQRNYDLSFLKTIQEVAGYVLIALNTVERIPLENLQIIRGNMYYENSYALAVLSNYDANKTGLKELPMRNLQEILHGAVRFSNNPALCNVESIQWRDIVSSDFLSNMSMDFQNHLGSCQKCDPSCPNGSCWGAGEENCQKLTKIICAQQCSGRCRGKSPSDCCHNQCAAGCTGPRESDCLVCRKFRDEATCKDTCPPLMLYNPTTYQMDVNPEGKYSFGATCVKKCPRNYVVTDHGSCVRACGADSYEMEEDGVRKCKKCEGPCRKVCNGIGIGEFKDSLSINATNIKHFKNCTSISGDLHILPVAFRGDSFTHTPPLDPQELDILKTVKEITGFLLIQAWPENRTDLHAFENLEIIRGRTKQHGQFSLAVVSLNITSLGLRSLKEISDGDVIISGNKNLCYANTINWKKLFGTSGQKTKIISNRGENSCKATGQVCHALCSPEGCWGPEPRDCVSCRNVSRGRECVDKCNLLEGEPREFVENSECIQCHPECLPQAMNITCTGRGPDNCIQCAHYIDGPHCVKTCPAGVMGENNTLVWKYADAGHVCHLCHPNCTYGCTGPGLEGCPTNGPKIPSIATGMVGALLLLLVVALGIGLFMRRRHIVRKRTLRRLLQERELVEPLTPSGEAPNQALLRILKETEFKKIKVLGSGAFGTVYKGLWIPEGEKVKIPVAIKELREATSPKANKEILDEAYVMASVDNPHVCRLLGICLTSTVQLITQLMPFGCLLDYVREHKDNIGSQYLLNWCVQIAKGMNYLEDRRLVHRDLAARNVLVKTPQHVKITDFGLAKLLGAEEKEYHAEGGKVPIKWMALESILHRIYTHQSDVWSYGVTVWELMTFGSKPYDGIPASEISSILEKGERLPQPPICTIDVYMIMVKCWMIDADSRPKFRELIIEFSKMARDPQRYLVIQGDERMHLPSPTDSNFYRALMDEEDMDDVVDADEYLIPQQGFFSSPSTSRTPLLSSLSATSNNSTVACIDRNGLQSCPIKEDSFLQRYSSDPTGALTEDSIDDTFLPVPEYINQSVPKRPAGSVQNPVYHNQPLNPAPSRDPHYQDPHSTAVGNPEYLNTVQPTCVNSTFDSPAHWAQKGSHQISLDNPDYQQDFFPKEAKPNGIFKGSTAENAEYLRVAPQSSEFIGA

Cc1ccc(C=NNC(=O)CSc2nc3ccccc3c(=O)n2Cc2ccc(S(N)(=O)=O)cc2)cc1 [Compound 9, 4-((2-((2-(2-(4-Methylbenzylidene)hydrazineyl)-2-oxoethyl)thio)-4-oxoquinazolin-3(4H)-yl)methyl)benzenesulfonamide]
GI % (UO-31): 20% | GI % (A549/ATCC): 15% | GI % (SR): 51% | GI % (UACC-62): 22% | GI % (LOX IMVI): 18% | GI % (MDA-MB-435): 54% | IC50 (COX-2): 15400 ± 320 nM | GI % (MDA-MB-231/ATCC): 11% | GI % (HT29): 14% | GI % (K-562): 37% | GI % (SNB-19): 11% | GI % (MDA-MB-468): 19% | MG% (mean growth percent) (59 cancer cell lines): 88.5% | GI % (CAKI-1): 36% | GI % (MCF7): 41% | GI % (SF-268): 22% | GI % (OVCAR-3): 21% | GI % (RXF 393): 14% | GI % (MOLT-4): 14% | GI % (SNB-75): 29% | IC50 (CDK9): 316 ± 7.76 nM | GI % (T-47D): 19% | GI % (NCI-H226): 16% | IC50 (HER2): 229 nM | GI % (PC-3): 11% | GI % (SK-MEL-5): 26% | IC50 (EGFR): 378 ± 9.26 nM | GI % (EKVX): 10% | GI % (HS 578T): 12% | GI % (NCI-H522): 58% | GI % (HCT-15): 11% | GI % (KM12): 14% | GI % (CCRF-CEM): 13%

Cc1ccc(NC(=O)c2ccc(CN3CCN(C)CC3)cc2)cc1Nc1nccc(-c2cccnc2)n1 [Imatinib, reference compound]
GI % (SF-539): 24.5% | GI % (SR): 14.6% | GI % (LOX IMVI): 11.6% | GI % (NCI-H23): 17.1% | GI % (MDA-MB-231/ATCC): 11.2% | GI % (HT29): 47.1% | GI % (MDA-MB-468): 29.1% | GI % (DU-145): 14.4% | MG% (mean growth percent) (59 cancer cell lines): 92.62% | MG% (mean growth percent) (59 cancer cell lines; listed as imatinib): 92.6% | GI % [1]: < 10% | GI % (MOLT-4): 18% | GI % (HCT-116): 18.6% | GI % (T-47D): 18.6% | GI % (NCI-H226): 10.6% | GI % (PC-3): 10.6% | GI % (EKVX): 15.7% | GI % (U251): 10.6% | GI % (A498): 13.7% | GI % (SF-295): 15.1% | GI % (RPMI-8226): 12.6% | GI % (HCT-15): 11.5%
